This passage reports melting point results from a melting point compilation (Tetko et al.; mined from patent text by program, amines drawn as free bases though some values may be those of a salt).

As usually defined, the melting point is the temperature, or range, at which the solid turns liquid.

Molecule `NC(=O)c1nc(Cl)cc(N)c1Cl` yielded a melting point of 240 to 241 °C.

On to `Cc1nn(C)c(Cl)c1S(N)(=O)=O`, for which the melting point was 173 °C.

Regarding `NC(=O)c1cc(-c2ccnc(Nc3cccc(OC(F)(F)C(F)F)c3)n2)ccn1`, the melting point lay in the range of 224 to 225 °C.

As to `O=C(c1ccc(O)cc1)c1ccc2cc(C(=O)c3ccc(O)cc3)ccc2c1`, the melting point was 307 °C.

On to `Nc1nc2c(s1)C(=O)c1ccccc1C2=O`, for which the melting point is above 260 °C.

In the case of `COc1nc2c(C)cc(C)cc2c(-c2ccccc2Cl)c1N(C(N)=O)c1ccc(F)cc1F`, the melting point fell in the range of 231 to 232 °C.

In turn, `COc1ccc(-c2nc3cc(F)ccc3s2)cc1OC(=O)c1ccccc1Br` came in with a melting point of 220 to 223 °C.

The molecule `O=C(O)Cc1cccc2c(-c3ccccc3Cl)nccc12` came in with a melting point of 190 °C.

Turning to `CCCCCCCCCCNC(=O)OC1CCN(C(=O)OCCCCCCNC(=O)Oc2ccc(Oc3ccccc3)cc2)CC1`, the melting point lay in the range of 87 to 91 °C.

Regarding `Oc1nc(C2CC2)ncc1Br`, the melting point was determined as 200 °C.

The molecule `CCCN1CCc2[nH]c3ccc4scc(-c5ccccc5)c4c3c2C1` displayed a melting point of 187 to 188 °C.

`COc1ccc(-c2ccc3c(N4CCOC[C@@H]4C)nc(N4CCOC[C@@H]4C)nc3n2)cc1CO` registered a melting point of 202 to 205 °C.

`CN(C)S(=O)(=O)N(C)c1ccc(C(=O)Nc2ccc(Cl)cc2)cc1` came in with a melting point of 155 to 156 °C.

`COC(=O)c1[nH]ccc1OC(C)C` came in with a melting point of 77 to 79 °C.

`CCCC[C@H](NC(=O)[C@H](CC(C)C)NC(=O)OCc1ccc(C#N)cc1)C(=O)CSCc1ccco1` showed a melting point of 83 to 89 °C.

`COC1=C(C)C(=O)C2=C(C1=O)C(COC(N)=O)C1(OC)C3NC3CN21` (centres undefined) yielded a melting point of 161 °C.

On to `CNCC1Cc2c(Cl)cc3c(c2O1)CCC3` (centres undefined), for which the melting point fell in the range of 58 to 60 °C.

For the molecule `COc1cccc(Cn2cnc3c(-c4ccco4)ncnc32)c1`, the melting point was in the range of 138 to 139 °C.

In turn, `COC(=O)CC1=C(C)Cc2ccc(SC)cc21` had a melting point of 200 to 210 °C.

`COCCc1nc2c(N)nc3ccccc3c2n1CC(C)(C)CN(C(N)=O)c1ccccc1` yielded a melting point of 125 to 130 °C.

Regarding `CCNC(=O)N(C)c1c(C)cc(C(O)(C(F)(F)F)C(F)(F)F)cc1C`, the melting point is 178 to 179 °C.

`CS(=O)(=O)C(=C1CN(C(c2ccccc2)c2ccccc2)C1)c1cccc([N+](=O)[O-])c1` returned a melting point of 184 °C.

Molecule `COC(=O)c1c(OCc2ccccc2)ccc2c1CC[C@H](NC(C)C)[C@@H]2O` (relative stereo) registered a melting point of 91 to 92 °C.

`O=[N+]([O-])c1ccc(-n2cnc(CO)c2)c(F)c1` showed a melting point of 157 to 159 °C.

For `CCC(C)c1ccc(NS(=O)(=O)c2ccc(N3CCNC3=O)cc2)cc1` (centres undefined), the melting point fell in the range of 157 to 159 °C.

On to `CN1CCC(c2ccc(N(C)C)cc2)(C(C)(C)O)CC1`, for which the melting point is 142 to 143 °C.

`CNC(=O)COc1cc(C)ccc1O` returned a melting point of 163 to 165 °C.

Molecule `Cc1nc(C)c(Cl)c(NCc2nccc(SCCCSCc3ccncc3)c2C)n1` returned a melting point of 124 to 125 °C.

In the case of `COC(=O)c1cccc2[nH]cc(C=O)c12`, the melting point is 135 °C.

Turning to `Cc1cccc2c(=O)c3cccc(-c4ccccc4)c3oc12`, the melting point lay in the range of 140 to 141 °C.

Regarding `COc1ccc(F)cc1C(C)(C)CC(O)(Cc1ccc(C(=O)O)cc1)C(F)(F)F` (centres undefined), the melting point was in the range of 174 to 177 °C.

As for `Cn1c(=O)c(-c2ccc(Cl)cc2Cl)cc2c3cc(-c4nc(CN)cs4)ccc3n(C)c21`, the melting point is 261 to 266 °C.

With `O=C(O)[C@@H]1CCCN1C(=O)CCCS`, the melting point lay in the range of 157 to 158 °C.

In turn, `O=[N+]([O-])c1ccc(-c2ncnn2-c2ccc(F)cc2)cc1` came in with a melting point of 132 to 134 °C.

Molecule `C[C@H](NC(=O)c1cc(F)cc(NS(=O)(=O)CC2CN(C(c3ccc(Cl)cc3)c3ccc(Cl)cc3)C2)c1)C(N)=O` displayed a melting point of 219 to 221 °C.

On to `NC(=O)c1sc2c(Cl)cccc2c1Cl`, for which the melting point is 225 to 229 °C.

Consider `CCN(CC)c1nc(O)cc(OC)n1`, for which the melting point fell in the range of 165 to 166 °C.

`CCOC(=O)C(=O)Nc1c([N+](=O)[O-])sc2c(Cl)cc(Cl)cc12` displayed a melting point of 177 to 180 °C.

Take `Cc1nc(-c2ccc(C(F)(F)F)cc2)oc1Sc1ccc(Cc2nn[nH]n2)cc1`: the melting point amounted to 214 °C.

`CC(=O)N1C(C(=O)c2cn(C(=O)OC(C)(C)C)c3ccccc23)CSC1c1cccnc1` (centres undefined) gave a melting point of 141 to 143 °C.

Turning to `Cn1nc(C(F)(F)F)cc1-c1ccc(CN2CCN(c3ccc(OCC4CCn5cc([N+](=O)[O-])nc5O4)cc3)CC2)s1` (centres undefined), the melting point is 180 to 181 °C.

Molecule `CSc1c(C(=O)NN=Cc2nccs2)[nH]c2ccccc12` had a melting point of 216 to 222 °C.

As to `COCCOC(=O)c1ccccc1Nc1nc(Nc2cc3c(cc2OC)CCN(CC(C)O)CC3)ncc1Cl` (centres undefined), the melting point was 100 °C.

In turn, `COc1ccc(C2(O)C=CC=CC2CCc2c(Cl)cncc2Cl)cc1OC1CCCC1` (centres undefined) had a melting point of 129 to 130 °C.

Take `Nc1cccc(Oc2ccc(Sc3ccc(Oc4cccc(N)c4)cc3)cc2)c1`: the melting point fell in the range of 112 to 113 °C.

As to `CN1C[C@@H]2CN(c3ccc4nc(Br)cn4n3)C[C@@H]2C1`, the melting point lay in the range of 144 to 146 °C.

Take `CNNc1ncn(-c2ccccc2)c(=O)n1`: the melting point is 219 °C.

Turning to `O=C(O)c1cc(-n2c(-c3ccccc3)cc3c2CCc2ccccc2-3)ccc1O`, the melting point lay in the range of 223 to 225 °C.

On to `O=C1SCC(O)=C1Cc1ccc(Br)cc1`, for which the melting point is 201 to 202 °C.

Turning to `CCNCC(=O)Nc1ccc2c(c1)C(=O)c1cc(NC(=O)CNCC)ccc1C2=O`, the melting point was determined as 145 °C.

On to `Cc1[nH]c(=S)n(Nc2cccc(Cl)c2)c1C`, for which the melting point stood at 234 °C.

The molecule `Nc1nc(Cl)c2ncn(OCCOCP(=O)(O)O)c2n1` returned a melting point of 190 to 195 °C.

Molecule `Cc1cc(O)c(C(C)(C)C)cc1C=O` registered a melting point of 168 to 170 °C.

For `Cc1nc2c(N)nc3ccccc3c2n1OC(C)(C)C`, the melting point lay in the range of 255 to 257 °C.

Turning to `CC(=O)c1ccc(-c2ccc(Br)cc2)c(F)c1`, the melting point was 89 to 91 °C.

`CCc1c(C)c(=O)oc2cc(-c3ccc(C(C)C)cc3)cc(OC)c12` showed a melting point of 83 °C.

Turning to `N#CCCNC(=O)c1cccc(-c2cccc3c2OC(Cc2cccc(C(F)(F)F)c2)C3)c1` (centres undefined), the melting point fell in the range of 145 to 146 °C.

In the case of `COC(Cc1ccc(OCCc2nc(-c3ccccc3)oc2C)c2ccsc12)C(=O)O` (centres undefined), the melting point lay in the range of 129 to 131 °C.

`O=C(O)c1ccc2cc(-c3ccc(OCCCO)c(C45CC6CC(CC(C6)C4)C5)c3)ccc2c1` showed a melting point of 277 to 279 °C.

In turn, `CC12CC(O)C3(F)C(CCC4=CC(=O)C=CC43C)C1CC(O)C2=O` (centres undefined) returned a melting point of 227 to 228 °C.

Turning to `N#Cc1nc2ncccc2[nH]1`, the melting point was 200 °C.

On to `CCCCCCCCCCCCc1ccccc1C(SCCCC(=O)O)C(=O)O` (centres undefined), for which the melting point lay in the range of 58 to 59 °C.

For `CCOc1cc2cc(C(=O)OC)c(C(=O)OC)c(-c3ccnc(Cl)c3)c2cc1OC`, the melting point is 205 to 208 °C.

In turn, `COc1cc(/C=C/CNc2cccc(-c3ccnc4c(C(=O)c5cccs5)cnn34)c2)ccc1O` showed a melting point of 180 to 184 °C.

Regarding `O=C1Nc2cccc(-c3cccc(NC(=O)c4ccc(S(=O)(=O)F)cc4)c3)c2/C1=C/c1ccc[nH]1`, the melting point fell in the range of 148 to 151 °C.

On to `O=C(Nc1ccc2[nH]c(C(F)(F)F)nc2c1)C(=O)N1CCC(Cc2ccccc2)CC1`, for which the melting point stood at 142 °C.

As to `COC(=O)CCCCCNC(=O)C(CO)NS(=O)(=O)c1ccc(Cl)cc1` (racemic), the melting point was in the range of 83 to 86 °C.

Consider `COc1ccc(C(=O)C(=O)c2ccc(-c3ccc(F)cc3)s2)cc1C`, for which the melting point came to 165 °C.

For `COc1ccc2cc(C(N)=O)ccc2n1`, the melting point is 212 to 214 °C.

`COC(=O)NC(=O)Nc1nc2c(Cl)cccc2s1` yielded a melting point of 319 to 320 °C.

On to `CC(=O)NCCCCCC(=O)N1CC1C#N` (centres undefined), for which the melting point lay within 74 to 77 °C.

`COC(=O)c1c(Sc2ccc(OC)cc2)nc(C)n1Cc1cc2c(cc1Cl)OCO2` returned a melting point of 152 °C.

Consider `COC(=O)c1ncoc1C`, for which the melting point lay within 46.5 to 47 °C.

Consider `[N-]=[N+]=NC[C@H]1CN(c2ccc(N3CCSCC3)c(F)c2)C(=O)O1`, for which the melting point lay in the range of 91.5 to 93 °C.

For the molecule `Cc1c(C(=O)O)nc2c(=O)[nH]c3cc(F)ccc3n12`, the melting point is above 250 °C.

With `COC(=O)c1ccc(C#CC(O)c2cccc3c2OCCC3(C)C)cc1O` (centres undefined), the melting point fell in the range of 122 to 123 °C.

For `Fc1ccc(-n2ncc3c2-c2ccccc2C3)cc1`, the melting point was in the range of 104 to 105 °C.

The molecule `N#Cc1cnn2c(C(F)(F)F)cc(-c3cccc(Cl)c3)nc12` returned a melting point of 204 °C.

On to `COc1ccc(-c2csc(Nc3ccc(C)cn3)n2)cc1OC`, for which the melting point fell in the range of 190 to 192 °C.

`CC(O)c1c(NC(=O)C(C)(C)C)cccc1C(F)(F)F` (centres undefined) showed a melting point of 172 °C.

Turning to `O=C(c1ccc(F)cc1)C1CCN(CCCN2c3ccccc3-c3ccccc3S2(=O)=O)CC1`, the melting point was 114 °C.

Turning to `CC(C)(C)CC(NC(=O)c1ccc(Cl)cc1)NC(=N[N+](=O)[O-])Nc1cccnc1` (centres undefined), the melting point lay within 184 to 185 °C.

`O=C1NC(=O)C(=Cc2ccc([N+](=O)[O-])cc2)S1` gave a melting point of 272 to 273 °C.

Turning to `CS(=O)(=O)OC[C@@H]1NC(=O)[C@@H]1n1c(-c2ccccc2)c(-c2ccccc2)oc1=O` (relative stereo), the melting point lay in the range of 185 to 188 °C.

Take `Cc1ncn(-c2ccccc2CNC(=O)c2nc3n(c(=O)c2OCc2ccccc2)CCOC3(C)C)n1`: the melting point lay in the range of 213 to 214 °C.

Consider `CN(SC(Cl)(Cl)Cl)S(=O)(=O)C(Cl)=C(Cl)Cl`, for which the melting point lay within 57 to 58 °C.

`CS(=O)(=O)Nc1cc2c(cc1Oc1ccccc1)C(=O)C(Sc1ccccc1)C2` (centres undefined): the melting point amounted to 86 °C.

In turn, `CC(C)(Nc1cc(Cl)ccc1[N+](=O)[O-])C(=O)O` gave a melting point of 146 to 147 °C.

In the case of `O=C(NCCc1ccncc1)c1[nH]c2ccc(Cl)cc2c1S(=O)(=O)c1ccccc1`, the melting point was 258 to 260 °C.
